# Test results: US20100021918A1, “METHOD FOR ASSAYING ACTION OF ANTITUMOR AGENT USING SPLICING DEFECTS AS INDEX” (Eisai R&D Management Co., Ltd., priority 2007, published 2010)
# System: peripheral blood mononuclear cells (PBMC)
# Assay: qPCR of precursor gene (pre-mRNA) expression in PBMC, Table 2
# Assay type: cell-based, human
# Conditions: three hours
# Source text: Since it is not easy to obtain a cancer tissue clinically, the measurement of the marker in hemocytes readily obtainable in peripheral blood would be more useful. It was then examined whether the marker gene obtained in cancer cells could change in peripheral blood mononuclear cells in a similar manner as observed in the cancer cells. Specifically peripheral blood was taken from three normal individuals (volunteers) and peripheral blood mononuclear cells were purified and treated with (8E,12E,14E)-7-((4-cycloheptylpiperazin-1-yl)carbonyl)oxy-3,6,16,21-tetrahydroxy-6,10,12,16,20-pentamethyl-18,19-epoxytricosa-8,12,14-trien-11-olide for three hours, followed by measurement of change in expression of the precursor gene (pre-mRNA) by qPCR.
# Ficoll-Paque PLUS solution (Amersham, 17-1440-02) was slowly added to the blood taken (with heparin added) from healthy individuals to form a layer underneath the blood (15 mL of Ficoll-Paque PLUS solution was added to 25 mL of blood). After the mixture was centrifuged at 1500 rpm for 30 min, the upper part containing platelets was removed and then a layer containing mononuclear cells was transferred to another tube. The cells were suspended in PBS and centrifuged at 1500 rpm for 5 min, followed by removal of the supernatant. After these steps were repeated twice, the PBMC was suspended in RPMI1640 (containing 10% FBS, penicillin, and streptomycin) and the number of the cells was then counted.
# PBMC was suspended in RPMI1640 medium (containing 10% FBS, penicillin, and streptomycin) to 5×10^6 cells/ml and 1 ml of the suspension was plated per well of a 24-well plate. Immediately, 111 μl of 10 times-concentrated (8E,12E,14E)-7-((4-cycloheptylpiperazin-1-yl)carbonyl)oxy-3,6,16,21-tetrahydroxy-6,10,12,16,20-pentamethyl-18,19-epoxytricosa-8,12,14-trien-11-olide was added to the well (six wells per each concentration tested). The cells were then cultured in an incubator with 5% carbon dioxide gas at 37° C. Three hours later, the supernatant was collected and centrifuged at 1500 rpm for five minutes. TRI reagent (SIGMA) (1 ml) was added to each well of the plate from which the supernatant was removed to harvest the cells, which was added to the centrifuged pellet to dissolve. RNA was purified in accordance with the protocol of TRI reagent. RNA was further purified using RNeasy (QIAGEN) and, in accordance with the protocol, DNaseI was added to the samples during the procedure. Absorbance at 260 nm was measured to quantify an amount of RNA.
# RNA was prepared to 30 ng/μl and cDNA was synthesized using TaqMan Reverse Transcription Reagents (Applied Biosystems). For the expression level of pre-mRNA of ID1, amplification was carried out by using TaqMan Universal PCR Master Mix (Applied Biosystems) with TaqMan Gene Expression Assays (Hs00704053_s1, Applied Biosystems) as a probe. For the expression level of pre-mRNA of DNAJB1, BZW1, NUP54, RIOK3, CDKN1B, STK17B, ADRM1, EIF4A1, FOXK2, GNB2L1, HSPA9B, HSPH1, KLHL18 and VIL2, reagents were prepared in accordance with each protocol by using POWER SYBR GREEN PCR MASTER MIX (Applied Biosystems) and primers with the sequence below (Invitrogen), and the expression level was measured with ABI7900 (Applied Biosystems). 18S rRNA was measured by both the TaqMan and SYBR methods. The expression level of 18S r RNA was measured with Hs99999901_s1 (Applied Biosystems) as primers for TaqMan and with 18S primers included in TaqMan Ribosomal RNA control reagents (4308329: Applied Biosystems) as primers for SYBR. Measured values were corrected using the expression level of 18S rRNA as an internal control. The expression level of each gene was calculated with the expression level in the cells treated without (8E,12E,14E)-7-((4-cycloheptylpiperazin-1-yl)carbonyl)oxy-3,6,16,21-tetrahydroxy-6,10,12,16,20-pentamethyl-18,19-epoxytricosa-8,12,14-trien-11-olide as 1.
compound,measurement,setting,value
"CCC(O)C(C)C1OC1CC(C)(O)/C=C/C=C(\C)C1OC(=O)CC(O)CCC(C)(O)C(OC(=O)N2CCN(C3CCCCCC3)CC2)/C=C/C1C (stereo not drawn) [E7107, (8E,12E,14E)-7-((4-cycloheptylpiperazin-1-yl)carbonyl)oxy-3,6,16,21-tetrahydroxy-6,10,12,16,20-pentamethyl-18,19-epoxytricosa-8,12,14-trien-11-olide]",expression level of pre-mRNA of ADRM1 (untreated cells as 1),E7107 3 nM,1.8
same,expression level of pre-mRNA of BZW1 (untreated cells as 1),E7107 3 nM,1.72
same,expression level of pre-mRNA of CDKN1B (untreated cells as 1),E7107 3 nM,1.27
same,expression level of pre-mRNA of DNAJB1 (untreated cells as 1),E7107 3 nM,2.25
same,expression level of pre-mRNA of EIF4A1 (untreated cells as 1),E7107 3 nM,2.17
same,expression level of pre-mRNA of FOXK2 (untreated cells as 1),E7107 3 nM,2.1
same,expression level of pre-mRNA of GNB2L1 (untreated cells as 1),E7107 3 nM,2.47
same,expression level of pre-mRNA of HSPA9 (untreated cells as 1),E7107 3 nM,1.87
same,expression level of pre-mRNA of HSPH1 (untreated cells as 1),E7107 3 nM,1.26
same,expression level of pre-mRNA of ID1 (untreated cells as 1),E7107 3 nM,3.31
same,expression level of pre-mRNA of KLHL18 (untreated cells as 1),E7107 3 nM,2.36
same,expression level of pre-mRNA of NUP54 (untreated cells as 1),E7107 3 nM,2.31
same,expression level of pre-mRNA of RIOK3 (untreated cells as 1),E7107 3 nM,2.59
same,expression level of pre-mRNA of STK17B (untreated cells as 1),E7107 3 nM,1.94
same,expression level of pre-mRNA of VIL2 (untreated cells as 1),E7107 3 nM,1.27
same,expression level of pre-mRNA of ADRM1 (untreated cells as 1),E7107 10 nM,2.68
same,expression level of pre-mRNA of BZW1 (untreated cells as 1),E7107 10 nM,2.34
same,expression level of pre-mRNA of CDKN1B (untreated cells as 1),E7107 10 nM,2.35
same,expression level of pre-mRNA of DNAJB1 (untreated cells as 1),E7107 10 nM,4.46
same,expression level of pre-mRNA of EIF4A1 (untreated cells as 1),E7107 10 nM,3.64
same,expression level of pre-mRNA of FOXK2 (untreated cells as 1),E7107 10 nM,2.68
same,expression level of pre-mRNA of GNB2L1 (untreated cells as 1),E7107 10 nM,2.74
same,expression level of pre-mRNA of HSPA9 (untreated cells as 1),E7107 10 nM,3.45
same,expression level of pre-mRNA of HSPH1 (untreated cells as 1),E7107 10 nM,1.88
same,expression level of pre-mRNA of ID1 (untreated cells as 1),E7107 10 nM,6
same,expression level of pre-mRNA of KLHL18 (untreated cells as 1),E7107 10 nM,2.97
same,expression level of pre-mRNA of NUP54 (untreated cells as 1),E7107 10 nM,2.46
same,expression level of pre-mRNA of RIOK3 (untreated cells as 1),E7107 10 nM,3.57
same,expression level of pre-mRNA of STK17B (untreated cells as 1),E7107 10 nM,3.44
same,expression level of pre-mRNA of VIL2 (untreated cells as 1),E7107 10 nM,2.87
same,expression level of pre-mRNA of ADRM1 (untreated cells as 1),E7107 30 nM,2.59
same,expression level of pre-mRNA of BZW1 (untreated cells as 1),E7107 30 nM,3.26
same,expression level of pre-mRNA of CDKN1B (untreated cells as 1),E7107 30 nM,4.9
same,expression level of pre-mRNA of DNAJB1 (untreated cells as 1),E7107 30 nM,7.42
same,expression level of pre-mRNA of EIF4A1 (untreated cells as 1),E7107 30 nM,4.36
same,expression level of pre-mRNA of FOXK2 (untreated cells as 1),E7107 30 nM,2.31
same,expression level of pre-mRNA of GNB2L1 (untreated cells as 1),E7107 30 nM,2.23
same,expression level of pre-mRNA of HSPA9 (untreated cells as 1),E7107 30 nM,2.33
same,expression level of pre-mRNA of HSPH1 (untreated cells as 1),E7107 30 nM,2.68
same,expression level of pre-mRNA of ID1 (untreated cells as 1),E7107 30 nM,10.57
same,expression level of pre-mRNA of KLHL18 (untreated cells as 1),E7107 30 nM,2.6
same,expression level of pre-mRNA of NUP54 (untreated cells as 1),E7107 30 nM,1.93
same,expression level of pre-mRNA of RIOK3 (untreated cells as 1),E7107 30 nM,2.89
same,expression level of pre-mRNA of STK17B (untreated cells as 1),E7107 30 nM,3.99
same,expression level of pre-mRNA of VIL2 (untreated cells as 1),E7107 30 nM,4.89
